Results published in article PMC5820170 (Molecular cancer therapeutics, 2015).

Target: Mammalian Ste20-like kinase 4 (MST4) (Homo sapiens, UniProt Q9P289)
Assay type: biochemical

Mammalian Ste20-like kinase 4 (MST4), sequence (Q9P289 whole entry): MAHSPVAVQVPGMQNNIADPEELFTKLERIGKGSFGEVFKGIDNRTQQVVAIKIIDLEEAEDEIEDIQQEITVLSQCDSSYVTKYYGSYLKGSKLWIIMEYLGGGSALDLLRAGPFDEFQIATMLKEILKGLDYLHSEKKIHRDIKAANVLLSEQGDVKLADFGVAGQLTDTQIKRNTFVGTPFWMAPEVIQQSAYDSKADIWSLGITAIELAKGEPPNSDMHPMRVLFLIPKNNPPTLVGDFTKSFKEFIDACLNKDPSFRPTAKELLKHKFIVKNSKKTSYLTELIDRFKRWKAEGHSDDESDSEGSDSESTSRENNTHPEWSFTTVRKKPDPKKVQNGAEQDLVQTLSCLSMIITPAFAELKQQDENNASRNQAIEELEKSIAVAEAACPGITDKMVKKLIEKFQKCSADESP

In the case of `CCS(=O)(=O)Nc1ccc2c(c1)/C(=C(/Nc1ccc(CN3CCCCC3)cc1)c1ccccc1)C(=O)N2` [Hesperadin], the IC50 is reported as 6.18 ± 2.2 nM.
